Laboratory results as given in patent US20100197765A1, “METHOD FOR PROMOTING THE EXPRESSION OF P53, AND P53 EXPRESSION PROMOTER FOR USE IN THE METHOD” (THE UNIVERSITY OF TOKUSHIMA, priority 2007, published 2010).

Experiments:
Type in all cases: cell-based, human
p53 [1] = test: endogenous p53 mRNA (quantitative RT-PCR) and p53 protein (Western) in siRNA-transfected HCT116 cells
Description: From the results obtained in the above (1) and (2), it is interpreted that vegf IresRNA exerts an adverse influence in the p53 cancer suppression pathway. Thus, the expression level of endogenous p53 in cells transfected with vegf siRNA was examined. Specifically, the same transfected parent cells […] as in the above were treated for 8 hours in the presence of 80 lμmol/L of 5-FU (+) or in the absence of 5-FU (−), after which expression of p53 mRNA was analyzed by quantitative RT-PCR (means±SD, n=4). Also, the transfected cells were treated in the presence of 80 μmol/L of 5-FU (+) for a predetermined time (0, 8, 16, 24 hours), after which p53 protein was detected by the Western immunoblotting described above.

p53 [2] = test: p53 mRNA (Northern) and p53 protein (Western) expression in siRNA-expressing HepG2 cells
Description: Western immunoblotting was performed according to Huez, I. et al. Mol. Endocrinol. 15 2197-2210 (2001) or Masuda, K., et al. PLoS Med. 5, e94 (2008). As a primary antibody, anti p53 antibody (“DO-1” or “FL-393”, Santa Cruz Biotechnology, Inc.), anti […] (“clone AC-15”, Sigma Chemical Co.), anti HA (“Y-11”, Santa Cruz Biotechnology Inc.), and anti L-VEGF (polyclonal anti L-VEGF antibody) mentioned in the Huez, I. et al. (2001) were used.
(§1) Total RNAs were extracted according to a guanidine thiocyanate method. Labeled cDNAs were produced using the following antisense primers, a klenow fragment (New England BioLabs, Inc., Inc.), and [α^−32P]dCTP, with the following cDNAs being templates. Thus obtained labeled cDNAs were used as probes for the Northern blotting.
Each type of the vectors was transfected into HepG2 cells for 18 hours in the same manner as in the above-described item (1). Then, the cells were treated in the presence of 5-FU (30 μmol/L) (+) or the absence of 5-FU (−). With respect to the cells treated for 8 hours, the expression level of p53 mRNA was analyzed by the Northern blotting. With respect to the cells treated for 12 hours, the expression level of p53 protein was analyzed by the Western immunoblotting. Analysis of protein also was performed with respect to β-actin protein that is an endogenous control (hereinafter, the same applies). […] In FIG. 1C, the first row from the top indicates expression of p53 mRNA, the second row indicates expression of gapdh mRNA, the third row indicates expression of p53 protein, and the fourth row indicates expression of 6-actin protein. Further, in FIG. 1C, “−” indicates the treatment in the absence of 5-FU and “+” indicates the treatment in the presence of 5-FU.

vegf mRNA [3] = test: vegf mRNA by quantitative RT-PCR in siRNA-transfected HCT116 cells; details: HCT116, 18 hours after transfection, ratio to gapdh mRNA
Description: From 1 μg of total RNA, cDNA was synthesized using SuperScriptII RNaseH(−) reverse transcriptase (Invitrogen), and PCR was performed using primers for amplification-purpose nucleic sequences with the cDNA being a template. The amplification and the quantitative analysis of PCR products were performed using Applied Biosystems 7500 (Applied Biosystems) by the method recommended by the manufacturer.
Whether or not vegf siRNA promotes the apoptosis sensitivity of cells was examined. In the same manner as in Example A1 except that HCT116 cells (parent cells, wild-type p53) were used instead of the HepG2 cells (wild-type p53), the vegf siRNA #1 vectors expressing siRNA #1, the vegf siRNA #2 vectors expressing siRNA #2, and the control siRNA vectors described above were respectively transfected into the HCT116 cells (parent cells, wild-type p53). Then, with regard to the cells after 18 hours from the transfection, the expression levels of vegf mRNA and gapdh mRNA were analyzed by quantitative RT-PCR (means±SD, n=4) and the expression levels of vegf IresRNA and gapdh mRNA were analyzed by Northern blotting. Also, with regard to HCT116 cells not transfected with the above-described recombinant vectors, the analyses were conducted in the same manner. The quantitative RT-PCR was conducted in the same manner as in Example B1, except that a primer set for vegf mRNA was used.

p53-deleted cells HCT116 = test: apoptosis (TUNEL) in p53-deleted HCT116 cells with vegf siRNA and 5-FU; details: p53-deleted cells HCT116, 5-FU treated, 60 hours
Description: Apoptotic cells were evaluated by a TUNEL staining method using in situ Cell Death Detection kit (Roche Diagnostic). […] The counting was performed with respect to at least 300 cells in one measurement.
Various types of cells were treated with 5-FU, which is an anticancer agent inducing apoptosis in a p53-dependent manner, and the sensitivity to apoptosis was analyzed. The vegf siRNA#1 vectors expressing siRNA#1, the vegf siRNA #2 vectors expressing siRNA #2, and the control siRNA vectors described above respectively were transfected into HCT 116 (parent cells) and p53-deleted cells HCT116. Then, the cells after 18 hours from the transfection was treated for 60 hours in the presence of […] of 5-FU (+) or in the absence of 5-FU (−). The proportion (%) of apoptosis positive cells in the thus-treated cells was calculated based on “Apoptotic evaluation 2” above (means±SD, n=4).

vegf mRNA [4] = test: vegf mRNA expression by Northern blotting in HepG2 cells expressing vegf siRNA; details: HepG2, 18 hours after vector transfection, vs untransfected and control siRNA cells
Description: as §1
The vegf siRNA #1 vectors, the vegf siRNA #2 vectors, and the control siRNA vectors were transfected into HepG2 cells (wild-type p53). These cells were cultured for 18 hours, and the expression level of vegf mRNA was analyzed by the Northern blotting. Also, with respect to the HepG2 cells not transfected with the vectors, the analysis was performed in the same manner. At the time of analysis, gapdh mRNA in each type of the cells was monitored as a loading control (hereinafter, the same applies). The cells were cultured using DMEM medium containing 10% fetal bovine serum and 100 μg/ml (100 units/ml) of streptomycin under the condition of 37° C. and 5% CO2 (hereinafter, the same applies).

[5] = tested on: noxa mRNA, puma mRNA, and p21 mRNA; test: expression of mRNAs induced in p53 pathways in HepG2 cells (Northern); details: HepG2, 5-FU 30 μmol/L, 16 hours
Description: In the same manner, HepG2 cells transfected with each type of the vectors were treated for 16 hours in the presence of 5-FU (30 μmol/L) (+) or the absence of 5-FU (−). With respect to the treated cells, expression of noxa mRNA, puma mRNA, and p21 mRNA induced in p53 pathways was analyzed by the Northern blotting. […] In FIG. 1D, the first row from the top indicates expression of noxa mRNA, the second row indicates expression of puma mRNA, the third row indicates expression of p21 mRNA, and the fourth row indicates expression of gapdh mRNA. Definitions of the lanes in FIG. 1D are the same as those of FIG. 1C.

[6] = HCT116, absence of 5-FU, vs control
[7] = HCT116, further treated with 5-FU 80 μmol/L, 8 hours
[8] = HCT116, further treated with 5-FU 80 μmol/L, up to 24 hours
[9] = HepG2, absence of 5-FU, vs control cells
[10] = HepG2, presence of 5-FU (30 μmol/L), mRNA 8 hours, protein 12 hours

Row | Substance | amount of the expressed p53 mRNA (p53 [1]; [6]) | amount of the expressed p53 mRNA (p53 [1]; [7]) | amount of the expressed p53 protein (p53 [1]; [8]) | amount of the expressed p53 protein (p53 [1]; HCT116, vs control) | expression of p53 mRNA and p53 protein (p53 [2]; [9]) | expression of p53 mRNA and p53 protein (p53 [2]; [10]) | amount of the vegf mRNA expressed (vegf mRNA [3]) | increase in proportion of apoptosis on siRNA expression (p53-deleted cells HCT116) | expression amount of vegf mRNA (vegf mRNA [4]) | expression induction of noxa mRNA, puma mRNA, and p21 mRNA [5]
1 | siRNA #1: siRNA against vegf mRNA, SEQ ID NO 3/4, antisense complementary to bases 1062-1082 in SEQ ID NO. 1; expressed from pcDNA6.2-GW/EmGFP-miR vector (sense GCAUUGGACUUGCCUUGCUNN; antisense AGCAAGGCAAGGCUCCAAUGCNN) | increased | increased markedly | increased markedly | increased | increased | increased markedly | decreased markedly | little increase | decreased markedly | enhanced markedly
2 | siRNA #2: siRNA against vegf mRNA, SEQ ID NO 5/6, antisense complementary to bases 1067-1087 in SEQ ID NO. 1; vector-expressed (sense GGAGCCUUGUUGCUGCUCUNN; antisense AGAGCAGCAAGGCAAGGCUCCNN) | increased | increased markedly | increased markedly | increased | increased | increased markedly | decreased markedly | little increase | decreased markedly | enhanced markedly
